According to patent publication US11559517B2, “Promotion of epithelial repair” (Telethon Kids Institute, priority 2018, dated 2023):
Entries after “also recorded” stand apart in the source; their conditions may differ.

Experiments:
Format in all cases: cell-based, human
[1] = system: pAEC from asthmatic children; assay: Scratch wound repair assay (wound closure), pAEC from asthmatic children; conditions: for accelerated repair compared to DMSO vehicle: 10 μM, 48 hours treatment post wounding; for promotion of pAEC repair relative to celecoxib: screen at 10 μM, cohort not given
Protocol: (§1) Two in vitro scratch wound models were used. […] Wound closure was calculated through image analysis by the accompanying live-cell imaging system (Essen Bioscience, Ann Arbor, Mich., USA).
(§2) To assess in vitro wound repair kinetics, linear scratch wounds were created using a commercial monolayer wounding kit. Once confluent, cell cultures were placed in starvation media (BEGM™ without epidermal growth factor) for about 24 hours prior to wounding. At the time of wounding, cell cultures were treated with compound dilution (10 μM), DMSO vehicle (0.05% v/v) or untreated. Wound closure rates were calculated through image analysis by the accompanying live-cell imaging system (Essen Bioscience, Ann Arbor, Mich., USA).

[2] = system: pAEC from non-asthmatic children; assay: MTS cell viability assay, pAEC from non-asthmatic children
Protocol: (§3) Cell viability was assessed using a 3-[4,5-dimethylthiazol-2yl]-5-[3-carboxymethoxyphenyl]-2-[4-sulfophenyl]-2H-tetrazolium inner salt (MTS) assay (Promega).
Cell viability was assessed using a 3-[4,5-dimethylthiazol-2yl]-5-[3-carboxymethoxyphenyl]-2-[4-sulfophenyl]-2H-tetrazolium inner salt (MTS) assay (Promega, Madison, Wis., USA). […]

[3] = system: pAEC from asthmatic children; assay: MTS cell viability assay, pAEC from asthmatic children
Protocol: as §3
Cell viability was assessed using a 3-[4,5-dimethylthiazol-2yl]-5-[3-carboxymethoxyphenyl]-2-[4-sulfophenyl]-2H-tetrazolium inner salt (MTS) assay (Promega, Madison, Wis., USA). Once confluent, cell cultures were treated with 10 μM compound, DMSO vehicle (0.05% v/v) or untreated for 48 hours.

[4] = system: pAEC from non-asthmatic children; assay: Scratch wound repair assay (wound closure), pAEC from non-asthmatic children; conditions: treated at time of scratch wounding; Wortmannin 0.01-10 μM, MK2206 0.01-5 μM
Protocol: as §1, §2

[5] = system: leading edge pAEC from non-asthmatic children; assay: Leading edge cell tracking after scratch wounding, pAEC from non-asthmatic children; conditions: Wortmannin 0.01-10 μM, MK2206 0.01-5 μM
Protocol: (§4) Manual Tracking, an ImageJ2 plugin publicly available was utilized for its capacity to manually track cells in two dimensions, the x and y planes. […] The selected cells were tracked over the first 12 h post wounding, where this procedure generated x and y coordinates for the position of the nucleus of each tracked cell at each time point. The x,y coordinates of the tracked cells were exported in a tab delimited format and all tracks were transformed to migrate up towards the y-axis. Graphical representation and analysis of the cell migration parameters was performed using the Chemotaxis and Migration Tool 2.0 (Ibidi®, Martinsried, Bayern, Germany). […] Migration parameters of cell tracks were then quantified including; (1) distance migrated (μm) which represented the displacement of a cell from the start to its endpoint, (2) velocity (μm/min), which is a function of displacement overtime, and (3) directionality (AU), which represents a measurement of the directness or straightness of a cell trajectory and was calculated as a ratio of the cell displacement over the accumulated distance migrated. […] Since directionality is not a direct measure of chemotaxis, the determined forward migration index (FMI) (AU) was then utilized to represent the efficiency of the leading edge cells to migrate towards the center of the wounded area. […]

[6] = system: Akt (serine residue 473); assay: In-Cell Western assay of Akt phosphorylation, pAEC from non-asthmatic children; conditions: concentration series (Wortmannin 0.01-10 μM, MK2206 0.01-5 μM); 12 h and 48 h post treatment
Protocol: (§5) Cells were plated at 1.2×10^5 cells/cm^2 onto 96-well plates precoated with fibronectin ([…]) and maintained as described earlier. Briefly, following relevant treatments and controls, confluent cell monolayers were fixed with 10% (v/v) NBF for 20 minutes at room temperature and then either permeabilized with 0.1% (v/v) Triton X-100 or incubated with PBS for 25 minutes. Cells were blocked for 90 min at room temperature with the Odyssey® blocking buffer (PBS) (LI-COR Biosciences). Cells were then stained with rabbit anti-human integrin α5 (1:100; clone EPR7854, Abcam), mouse anti-human integrin β1 (1:1000; clone P5D2, Abcam), rabbit anti-human phospho-Akt (Ser473) (1:100; clone D9E, Abcam) or mouse anti-human total Akt (pan) (1:100; clone 40D4, Abcam) for 24 hours at 4° C. Antibody binding was determined using IRDye 800 CW-conjugated goat anti-rabbit IgG (1:800; 925-32211, LI-COR Biosciences) and goat anti-mouse IgG (1:800; 925-32210, LI-COR Biosciences), as well as DRAQ5 (1:10000; DR50200, BioStatus Limited) and Sapphire700 (1:1000; 928-40022, LI-COR Biosciences) for cell number normalization, for 1 hour at RT with gentle shaking in the dark. Specific antibody staining for protein expression was then immediately visualized and quantified using an infrared imaging system (LI-COR Biosciences).

[7] = system: integrin α5; assay: On-Cell Western assay of integrin α5 cell membrane expression, pAEC from non-asthmatic children
Protocol: as §5
After this, cells were washed in 1× phosphate-buffered saline (PBS) and incubated with IRDye-conjugated secondary antibody (1:800 goat anti-rabbit and goat anti-mouse IgG, LI-COR Biosciences, Lincoln, Nebr., USA) containing DRAQ5 (1:10000, BioStatus Limited, Shepshed, United Kingdom) and Sapphire700 (1:1000, LI-COR Biosciences, Lincoln, Nebr., USA) for 1 hour at RT with gentle shaking in a dark room. Cells were then washed for an additional five times in PBS. Specific antibody staining for protein expression was then immediately visualized using an infrared imaging system (LI-COR Biosciences, Lincoln, Nebr., USA

[8] = system: integrin β1; assay: On-Cell Western assay of integrin β1 cell membrane expression, pAEC from non-asthmatic children; conditions: MK2206; 12 h treatment
Protocol: (§6) Cells were plated at 1.2×10^5 cells/cm^2 onto 96-well plates precoated with fibronectin ([…]) and maintained as described earlier. Briefly, following relevant treatments and controls, confluent cell monolayers were fixed with 10% (v/v) NBF for 20 minutes at room temperature and then either permeabilized with 0.1% (v/v) Triton X-100 or incubated with PBS for 25 minutes. Cells were blocked for 90 min at room temperature with the Odyssey® blocking buffer (PBS) (LI-COR Biosciences). Cells were then stained with rabbit anti-human integrin α5 (1:100; clone EPR7854, Abcam), mouse anti-human integrin β1 (1:1000; clone P5D2, Abcam), rabbit anti-human phospho-Akt (Ser473) (1:100; clone D9E, Abcam) or mouse anti-human total Akt (pan) (1:100; clone 40D4, Abcam) for 24 hours at 4° C. Antibody binding was determined using IRDye 800 CW-conjugated goat anti-rabbit IgG (1:800; 925-32211, LI-COR Biosciences) and goat anti-mouse IgG (1:800; 925-32210, LI-COR Biosciences), as well as DRAQ5 (1:10000; DR50200, BioStatus Limited) and Sapphire700 (1:1000; 928-40022, LI-COR Biosciences) for cell number normalization, for 1 hour at RT with gentle shaking in the dark. Specific antibody staining for protein expression was then immediately visualized and quantified using an infrared imaging system (LI-COR Biosciences). […]

[9] = system: leading edge pAEC from asthmatic children; assay: Leading edge cell tracking after scratch wounding, pAEC from asthmatic children; conditions: SC79 0.5-20 μM
Protocol: as §4

[10] = system: Akt (serine residue 473); assay: In-Cell Western assay of Akt phosphorylation, pAEC from asthmatic children; conditions: SC79 0.5-20 μM; 12 h and 48 h post treatment
Protocol: as §5

[11] = system: integrin α5; assay: On-Cell Western assay of integrin α5 cell membrane expression, pAEC from asthmatic children; conditions: 0.5, 2 and 5 μM SC79; 12 h and 48 h
Protocol: as §6

[12] = system: integrin β1; assay: On-Cell Western assay of integrin β1 cell membrane expression, pAEC from asthmatic children; conditions: 0.5, 2 and 5 μM SC79; 12 h and 48 h
Protocol: as §6

[13] = system: pAEC from asthmatic children; assay: Scratch wound repair assay (wound closure), pAEC from asthmatic children; conditions: SC79 0.5-20 μM at time of scratch wounding
[14] = 10 μM, 48 hours, change of less than or equal to 20% relative to DMSO vehicle considered non-cytotoxic
[15] = 0.01, 0.1, 1 μM (all concentrations bar the highest)

## NS(=O)(=O)c1ccccc1 [Compound C2, Benzenesulfonamide]
[1]
  accelerated repair compared to DMSO vehicle: no improvement

## Cc1ccc(-c2cc(C(F)(F)F)nn2-c2ccc(S(N)(=O)=O)cc2)cc1 [Compound C3, Celecoxib]
[2]; [14]
  cell viability (MTS): did not display any change in cell viability
[3]; [14]
  cell viability (MTS): did not display any change in cell viability
[3]; 0.01, 0.1, 1, 10 μM, listed as Celecoxib
  cell viability (MTS): did not cause significant cytotoxicity
[3]; 0.01, 0.1, 1, 10 μM, listed as celecoxib
  cell viability (MTS): not cytotoxic

## Cc1ccc(C)c(-c2cc(C(F)(F)F)nn2-c2ccc(S(N)(=O)=O)cc2)c1 [Compound C6, 2,5-Dimethyl-Celecoxib]
[1]
  promotion of pAEC repair relative to celecoxib: comparable efficacy

## CC(=NNc1ccc(S(N)(=O)=O)cc1)c1ccc(C)cc1 [Compound C11]
[1]
  accelerated repair compared to DMSO vehicle: no improvement

## CN1C(C(=O)Nc2ccccn2)=C(O)c2ccccc2S1(=O)=O [Compound C13, Piroxicam]
[1]
  accelerated repair compared to DMSO vehicle: no improvement

## O=C(O)c1cc(/N=N/c2ccc(S(=O)(=O)Nc3ccccn3)cc2)ccc1O [Compound C15, Sulfasalazine]
[1]
  accelerated repair compared to DMSO vehicle: no improvement

## Nc1ccc(S(N)(=O)=O)cc1 [Compound C17, Sulfanilamide]
[1]
  accelerated repair compared to DMSO vehicle: no improvement

## Cc1ccc(-c2cc(C(F)(F)F)n[nH]2)cc1 [Compound C19, 3-Trifluoromethy1-5-(p-tolyl)-1H-pyrazole]
[1]
  accelerated repair compared to DMSO vehicle: no improvement

## CS(=O)(=O)c1ccc(-n2nc(C(F)(F)F)cc2-c2ccc(F)cc2)cc1 [Compound C22, 5-(4-fluorophenyl)-1-[4-(methylsulfonyl)phenyl]-3-(trifluoromethyl)-1H-pyrazole]
[1]
  promotion of pAEC repair relative to celecoxib: to a greater degree than celecoxib

## NC1(c2ccc(-c3nc4ccn5c(=O)[nH]nc5c4cc3-c3ccccc3)cc2)CCC1 [MK2206]
[2]; [15]
  cell viability (MTS): did not cause significant cytotoxicity
[4]
  wound closure rates (effect in words): significant inhibition; also recorded: concentration-dependent reduction in wound closure rates
[5]
  leading edge cell migration (distance migrated, velocity, directionality, yFMI): significant inhibition; also recorded: inhibited distance migrated, velocity, directionality and centrality (yFMI)
[6]
  activation/phosphorylation of Akt (Ser473): significant inhibition; also recorded: inhibited activation of Akt
[7]; 1 μM MK2206, 48 h
  integrin α5 cell membrane expression: significant inhibition; also recorded: Significant reduction
[7]; MK2206, concentration-dependent, 12 h treatment
  integrin α5 cell membrane expression: concentration-dependent inhibition; also recorded: significant reduction of integrin α5
[7]; lower concentrations of MK2206 (below 1 μM), 48 h
  integrin α5 cell membrane expression: not with the lower concentrations
[8]
  integrin β1 cell membrane expression: did not have a significant effect

## CCOC(=O)C1=C(N)Oc2ccc(Cl)cc2C1C(C#N)C(=O)OCC (stereo not drawn) [SC79, 2-Amino-6-chloro-α-cyano-3-(ethoxycarbonyl)-4H-1-benzopyran-4-acetic acid ethyl ester]
[3]; SC79 0.5, 2, 5, 10, 20 μM
  cell viability (MTS): did not alter cell viability; also recorded: did not cause significant cytotoxicity
[9]
  leading edge cell migration (distance migrated, velocity, directionality, yFMI): stimulated leading edge cell migration; also recorded: stimulated distance migrated, velocity, directionality and centrality (yFMI)
[10]
  phosphorylation of Akt (Ser473): augment Akt signaling in a concentration-dependent manner; also recorded: resulted in phosphorylation of Akt
[11]
  integrin α5 cell membrane expression: restored their integrin α5 and β1 expression to equivalent levels to those of non-asthmatic children; also recorded: Significant activation
[12]
  integrin β1 cell membrane expression: restored their integrin α5 and β1 expression to equivalent levels to those of non-asthmatic children; also recorded: Significant activation
[13]
  wound closure rates (effect in words): significantly enhanced wound closure; also recorded: concentration-dependent increase in wound closure rates

## COC[C@H]1OC(=O)c2coc3c2[C@@]1(C)C1=C(C3=O)[C@@H]2CCC(=O)[C@@]2(C)C[C@H]1OC(C)=O [Wortmannin]
[2]; 10 μM Wortmannin
  cell viability (MTS): significant loss of viability
[2]; [15]
  cell viability (MTS): did not have a significant cytotoxic effect; also recorded: did not cause significant cytotoxicity

## Cc1ccc(C)c(-c2cc(C(F)(F)F)nn2-c2ccc(S(N)(=O)=O)cc2)c1 [dimethyl-Celecoxib]
[3]; 0.01, 0.1, 1, 10 μM
  cell viability (MTS): did not cause significant cytotoxicity
[3]; 0.01, 0.1, 1, 10 μM, listed as dimethyl-celecoxib
  cell viability (MTS): not cytotoxic
